Test results reported in ChEMBL document CHEMBL1201862, “PubChem BioAssay data set” (2004).
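Assay format: 96-well plates, 48-hour exposure. GI50: concentration for 50% inhibition of growth.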 Active and inactive are the calls of the source. No stated cut-off is given here; in the data, active = GI50 up to about 1.1 µM and inactive = higher.

Columns and labels:
Assay in all cases: growth of human tumour cells (NCI), 48 h
[1] = test system: Malme-3M
[2] = test system: U-251
[3] = test system: SR
[4] = test system: HOP-18
[5] = test system: SF-295
[6] = test system: SNB-19
[7] = test system: SK-MEL-28
[8] = test system: RXF 393
[9] = test system: 786-0
[10] = test system: HL-60
[11] = test system: LXFL 529
[12] = test system: UACC-257
[13] = test system: HCT-116
[14] = test system: IGROV-1
[15] = test system: NCI-H460
[16] = test system: SNB-78
[17] = test system: MOLT-4
[18] = test system: OVCAR-3
[19] = test system: EKVX
[20] = test system: CAKI-1
[21] = test system: SF-268
[22] = test system: ACHN
[23] = test system: LOX IMVI
[24] = test system: SW-620
[25] = test system: NCI-H226
[26] = test system: RXF 631
[27] = test system: SK-MEL-5
[28] = test system: HCT-15
[29] = test system: OVCAR-4
[30] = test system: A549
[31] = test system: SK-OV-3
[32] = test system: DLD-1
[33] = test system: SNB-75
[34] = test system: HT-29
[35] = test system: HOP-62
[36] = test system: COLO 205
[37] = test system: M19-MEL
[38] = test system: HCC 2998
[39] = test system: DMS-273
[40] = test system: M14
[41] = test system: CCRF-CEM
[42] = test system: UO-31
[43] = test system: NCI-H522
[44] = test system: TK-10
[45] = test system: NCI-H23
[46] = test system: DMS-114
[47] = test system: OVCAR-5
[48] = test system: SN12C
[49] = test system: UACC-62
[50] = test system: XF498
[51] = test system: KM-20L2
[52] = test system: OVCAR-8
[53] = test system: SK-MEL-2
[54] = test system: A498
[55] = test system: K562
[56] = test system: KM12
[57] = test system: SF-539

Cc1ccnc(NS(=O)(=O)c2ccc(NC3=CC(=O)C(=O)c4ccccc43)cc2)n1
GI50 [1]: > 100 µM (inactive)
GI50 [2]: > 100 µM (inactive)
GI50 [3]: > 100 µM (inactive)
GI50 [4]: > 100 µM (inactive)
GI50 [5]: > 100 µM (inactive)
GI50 [6]: > 100 µM (inactive)
GI50 [7]: > 100 µM (inactive)
GI50 [8]: > 100 µM (inactive)
GI50 [9]: > 100 µM (inactive)
GI50 [10]: > 100 µM (inactive)
GI50 [11]: > 100 µM (inactive)
GI50 [12]: > 100 µM (inactive)
GI50 [13]: > 100 µM (inactive)
GI50 [14]: > 100 µM (inactive)
GI50 [15]: > 100 µM (inactive)
GI50 [16]: > 100 µM (inactive)
GI50 [17]: > 100 µM (inactive)
GI50 [18]: > 100 µM (inactive)
GI50 [19]: > 100 µM (inactive)
GI50 [20]: > 100 µM (inactive)
GI50 [21]: > 100 µM (inactive)
GI50 [22]: > 100 µM (inactive)
GI50 [23]: > 100 µM (inactive)
GI50 [24]: > 100 µM (inactive)
GI50 [25]: > 100 µM (inactive)
GI50 [26]: > 100 µM (inactive)
GI50 [27]: > 100 µM (inactive)
GI50 [28]: > 100 µM
GI50 [29]: > 100 µM (inactive)
GI50 [30]: > 100 µM (inactive)
GI50 [31]: > 100 µM (inactive)
GI50 [32]: > 100 µM (inactive)
GI50 [33]: > 100 µM (inactive)
GI50 [34]: > 100 µM (inactive)
GI50 [35]: > 100 µM (inactive)
GI50 [36]: > 100 µM (inactive)
GI50 [37]: > 100 µM (inactive)
GI50 [38]: > 100 µM (inactive)
GI50 [39]: > 100 µM (inactive)
GI50 [40]: > 100 µM (inactive)
GI50 [41]: > 100 µM (inactive)
GI50 [42]: > 100 µM (inactive)
GI50 [43]: > 100 µM (inactive)
GI50 [44]: > 100 µM (inactive)
GI50 [45]: > 100 µM (inactive)
GI50 [46]: > 100 µM (inactive)
GI50 [47]: > 100 µM (inactive)
GI50 [48]: > 100 µM (inactive)
GI50 [49]: > 100 µM (inactive)
GI50 [50]: > 100 µM (inactive)
GI50 [51]: > 100 µM (inactive)
GI50 [52]: > 100 µM (inactive)
GI50 [53]: > 100 µM (inactive)
GI50 [54]: > 100 µM (inactive)
GI50 [55]: > 100 µM (inactive)
GI50 [56]: > 100 µM (inactive)
GI50 [57]: > 100 µM (inactive)
